Results as given in patent US9371342B2, “Isoprene oligomer, polyisoprene, processes for producing these materials, rubber composition, and pneumatic tire” (priority 2010, dated 2016).

Assays:
[1] = molecular target: T1, variant enzyme N77A of undecaprenyl diphosphate synthase (Micrococcus luteus, UniProt O82827, N77A); experiment: Relative activity of variant enzyme N77A on initiating substrates; format: biochemical, Micrococcus luteus B-P 26; conditions: index, activity of wild-type enzyme on same initiating substrate as 100; 12.5 μM initiating substrate, 1 hour, 37° C.
T1 construct: made in house; host or cells: E. coli; site-directed mutagenesis of pET22b/MLU-UPS
T1 sequence (O82827 whole entry N77A): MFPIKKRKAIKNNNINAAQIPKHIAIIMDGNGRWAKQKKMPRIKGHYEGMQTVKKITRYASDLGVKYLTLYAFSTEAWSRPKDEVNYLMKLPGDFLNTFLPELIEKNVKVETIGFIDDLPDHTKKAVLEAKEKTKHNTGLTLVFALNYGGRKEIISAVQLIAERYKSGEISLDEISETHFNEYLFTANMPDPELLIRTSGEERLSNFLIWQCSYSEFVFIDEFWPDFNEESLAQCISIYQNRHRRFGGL
Experimental: (§1) Reaction was performed under conditions shown below using each of the initiating substrates prepared in Production Examples 1 to 11 or farnesyl diphosphate. The activity of each variant enzyme on each initiating substrate was indicated by index with the activity of the wild-type enzyme (Micrococcus luteus B-P 26-derived undecaprenyl diphosphate synthase) as 100.
(§2) After the reaction, liquid scintillation counting and TLC quantification were performed to measure the activity of each enzyme.

[2] = molecular target: T2, variant enzyme L91K of undecaprenyl diphosphate synthase (Micrococcus luteus, UniProt O82827, L91K); experiment: Relative activity of variant enzyme L91K on initiating substrates; format: biochemical, Micrococcus luteus B-P 26; conditions: index, activity of wild-type enzyme on same initiating substrate as 100; 12.5 μM initiating substrate, 1 hour, 37° C.
T2 construct: made in house; host or cells: E. coli; site-directed mutagenesis of pET22b/MLU-UPS
T2 sequence (O82827 whole entry L91K): as the sequence (O82827 whole entry N77A) above, with A77N, L91K counted along it
Experimental: as §1, §2

[3] = molecular target: T3, variant enzyme L91N of undecaprenyl diphosphate synthase (Micrococcus luteus, UniProt O82827, L91N); experiment: Relative activity of variant enzyme L91N on initiating substrates; format: biochemical, Micrococcus luteus B-P 26; conditions: index, activity of wild-type enzyme on same initiating substrate as 100; 12.5 μM initiating substrate, 1 hour, 37° C.
T3 construct: made in house; host or cells: E. coli; site-directed mutagenesis of pET22b/MLU-UPS
T3 sequence (O82827 whole entry L91N): as the sequence (O82827 whole entry N77A) above, with A77N, L91N counted along it
Experimental: as §1, §2

[4] = molecular target: T4, variant enzyme N31A of undecaprenyl diphosphate synthase (Micrococcus luteus, UniProt O82827, N31A); experiment: Relative activity of variant enzyme N31A on initiating substrates; format: biochemical, Micrococcus luteus B-P 26; conditions: index, activity of wild-type enzyme on same initiating substrate as 100; 12.5 μM initiating substrate, 1 hour, 37° C.
T4 construct: made in house; host or cells: E. coli; site-directed mutagenesis of pET22b/MLU-UPS
T4 sequence (O82827 whole entry N31A): as the sequence (O82827 whole entry N77A) above, with N31A, A77N counted along it
Experimental: as §1, §2

[5] = molecular target: T5, variant enzyme N31Q of undecaprenyl diphosphate synthase (Micrococcus luteus, UniProt O82827, N31Q); experiment: Relative activity of variant enzyme N31Q on initiating substrates; format: biochemical, Micrococcus luteus B-P 26; conditions: index, activity of wild-type enzyme on same initiating substrate as 100; 12.5 μM initiating substrate, 1 hour, 37° C.
T5 construct: made in house; host or cells: E. coli; site-directed mutagenesis of pET22b/MLU-UPS
T5 sequence (O82827 whole entry N31Q): as the sequence (O82827 whole entry N77A) above, with N31Q, A77N counted along it
Experimental: as §1, §2

[6] = molecular target: T6, variant enzyme L91D of undecaprenyl diphosphate synthase (Micrococcus luteus, UniProt O82827, L91D); experiment: Relative activity of variant enzyme L91D on initiating substrates; format: biochemical, Micrococcus luteus B-P 26; conditions: index, activity of wild-type enzyme on same initiating substrate as 100; 12.5 μM initiating substrate, 1 hour, 37° C.
T6 construct: made in house; host or cells: E. coli; site-directed mutagenesis of pET22b/MLU-UPS
T6 sequence (O82827 whole entry L91D): as the sequence (O82827 whole entry N77A) above, with A77N, L91D counted along it
Experimental: as §1, §2

[7] = molecular target: T7, variant enzyme N77Q of undecaprenyl diphosphate synthase (Micrococcus luteus, UniProt O82827, N77Q); experiment: Relative activity of variant enzyme N77Q on initiating substrates; format: biochemical, Micrococcus luteus B-P 26; conditions: index, activity of wild-type enzyme on same initiating substrate as 100; 12.5 μM initiating substrate, 1 hour, 37° C.
T7 construct: made in house; host or cells: E. coli; site-directed mutagenesis of pET22b/MLU-UPS
T7 sequence (O82827 whole entry N77Q): as the sequence (O82827 whole entry N77A) above, with A77Q counted along it
Experimental: as §1, §2

[8] = molecular target: T8, variant enzyme F95W of undecaprenyl diphosphate synthase (Micrococcus luteus, UniProt O82827, F95W); experiment: Relative activity of variant enzyme F95W on initiating substrates; format: biochemical, Micrococcus luteus B-P 26; conditions: index, activity of wild-type enzyme on same initiating substrate as 100; 12.5 μM initiating substrate, 1 hour, 37° C.
T8 construct: made in house; host or cells: E. coli; site-directed mutagenesis of pET22b/MLU-UPS
T8 sequence (O82827 whole entry F95W): as the sequence (O82827 whole entry N77A) above, with A77N, F95W counted along it
Experimental: as §1, §2

[9] = molecular target: T9, variant enzyme F95A of undecaprenyl diphosphate synthase (Micrococcus luteus, UniProt O82827, F95A); experiment: Relative activity of variant enzyme F95A on initiating substrates; format: biochemical, Micrococcus luteus B-P 26; conditions: index, activity of wild-type enzyme on same initiating substrate as 100; 12.5 μM initiating substrate, 1 hour, 37° C.
T9 construct: made in house; host or cells: E. coli; site-directed mutagenesis of pET22b/MLU-UPS
T9 sequence (O82827 whole entry F95A): as the sequence (O82827 whole entry N77A) above, with A77N, F95A counted along it
Experimental: as §1, §2

[10] = molecular target: T10, Micrococcus luteus B-P 26-derived undecaprenyl diphosphate synthase (wild-type enzyme) (Micrococcus luteus, UniProt O82827); experiment: Relative activity of wild-type undecaprenyl diphosphate synthase on initiating substrates; format: biochemical; conditions: activity of the enzyme on farnesyl diphosphate as 100; 12.5 μM initiating substrate, pH 7.5, 1 hour, 37° C.
T10 construct: made in house; host or cells: E. coli; plasmid pET22b/MLU-UPS
T10 sequence (O82827 whole entry): as the sequence (O82827 whole entry N77A) above, with A77N counted along it
Experimental: as §1, §2
Next, reaction was performed under conditions shown below using Micrococcus luteus B-P 26-derived undecaprenyl diphosphate synthase as an enzyme and each of the initiating substrates 1 to 4, the compound represented by the formula (B), the compound represented by the formula (C), the compound represented by the formula (G), the compound represented by the formula (K), and farnesyl diphosphate (FPP). The results were indicated in Table 10 by the relative activity of the enzyme on the initiating substrates 1 to 4, the compound represented by the formula (B), the compound represented by the formula (C), the compound represented by the formula (G), and the compound represented by the formula (K) with the activity of the enzyme on farnesyl diphosphate as 100.
(§3) After the reaction, liquid scintillation counting and TLC quantification were performed to measure the activity of the enzyme on each initiating substrate.

[11] = molecular target: T11, variant enzyme L91G of undecaprenyl diphosphate synthase (Micrococcus luteus, UniProt O82827, L91G); experiment: Relative activity of variant enzyme L91G on initiating substrates; format: biochemical, Micrococcus luteus B-P 26; conditions: index, activity of wild-type enzyme on same initiating substrate as 100; 12.5 μM initiating substrate, 1 hour, 37° C.
T11 construct: made in house; host or cells: E. coli; site-directed mutagenesis of pET22b/MLU-UPS
T11 sequence (O82827 whole entry L91G): as the sequence (O82827 whole entry N77A) above, with A77N, L91G counted along it
Experimental: as §1, §2

[12] = molecular target: T12, Sulfolobus acidocaldarius-derived geranylgeranyl diphosphate synthase (Sulfolobus acidocaldarius, UniProt P39464); experiment: Relative activity of geranylgeranyl diphosphate synthase on initiating substrates; format: biochemical; conditions: 12.5 μM initiating substrate, pH 5.8, 1 hour, 55° C.
T12 construct: made in house; host or cells: E. coli BL21 (DE3)
T12 sequence (P39464 whole entry): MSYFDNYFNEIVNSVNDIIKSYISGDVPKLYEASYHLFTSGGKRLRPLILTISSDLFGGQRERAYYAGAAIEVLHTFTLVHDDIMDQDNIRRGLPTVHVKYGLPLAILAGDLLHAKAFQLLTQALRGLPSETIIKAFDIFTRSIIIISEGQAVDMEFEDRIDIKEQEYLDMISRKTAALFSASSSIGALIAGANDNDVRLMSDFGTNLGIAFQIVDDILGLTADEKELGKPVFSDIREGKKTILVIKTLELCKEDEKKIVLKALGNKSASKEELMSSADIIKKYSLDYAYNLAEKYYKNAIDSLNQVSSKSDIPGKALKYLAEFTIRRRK
Experimental: Likewise, reaction was performed under conditions shown below using Sulfolobus acidocaldarius-derived geranylgeranyl diphosphate synthase and each of the initiating substrates 1 to 4, the compound represented by the formula (B), the compound represented by the formula (C), the compound represented by the formula (G), the compound represented by the formula (K), the compound represented by the formula (F), the compound represented by the formula (I), the compound represented by the formula (Q), farnesyl diphosphate (FPP), and geranyl diphosphate (GPP). The results were indicated in Tables 12 and 13 by the relative activity of the enzyme on the initiating substrates 1 to 4, the compound represented by the formula (B), the compound represented by the formula (C), the compound represented by the formula (G), the compound represented by the formula (K), the compound represented by the formula (F), the compound represented by the formula (I), and the compound represented by the formula (QO) with the activity of the enzyme on farnesyl diphosphate or geranyl diphosphate as 100.
as §3

[13] = molecular target: T13, Bacillus stearothermophilus-derived farnesyl diphosphate synthase (Geobacillus stearothermophilus, UniProt Q08291); experiment: Relative activity of farnesyl diphosphate synthase on initiating substrates; format: biochemical; conditions: activity of the enzyme on geranyl diphosphate as 100; 12.5 μM initiating substrate, pH 8.5, 1 hour, 55° C.
T13 construct: made in house; host or cells: E. coli BL21 (DE3)
T13 sequence (Q08291 whole entry): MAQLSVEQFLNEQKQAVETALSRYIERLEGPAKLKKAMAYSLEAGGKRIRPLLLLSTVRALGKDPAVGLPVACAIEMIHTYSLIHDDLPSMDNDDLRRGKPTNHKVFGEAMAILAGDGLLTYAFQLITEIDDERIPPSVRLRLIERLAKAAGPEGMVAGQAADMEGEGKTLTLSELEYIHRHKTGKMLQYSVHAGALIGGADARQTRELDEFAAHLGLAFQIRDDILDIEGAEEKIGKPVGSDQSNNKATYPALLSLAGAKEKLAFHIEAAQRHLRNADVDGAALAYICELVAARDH
Experimental: Reaction was performed under conditions shown below using the obtained Bacillus stearothermophilus-derived farnesyl diphosphate synthase and each of the initiating substrates 1 to 4, the compound represented by the formula (F), the compound represented by the formula (I), the compound represented by the formula (QO), and geranyl diphosphate (GPP) whose structure is shown below. The results were indicated in Table 11 by the relative activity of the enzyme on the initiating substrates 1 to 4, the compound represented by the formula (F), the compound represented by the formula (I), and the compound represented by the formula (Q) with the activity of the enzyme on geranyl diphosphate as 100.
as §3

[14] = activity of the enzyme on farnesyl diphosphate as 100
[15] = activity of the enzyme on geranyl diphosphate as 100

| Molecule | Relative activity [1] | Relative activity [2] | Relative activity [3] | Relative activity [4] | Relative activity [5] | Relative activity [6] | Relative activity [7] | Relative activity [8] | Relative activity [9] | Relative activity (%) [10] | Relative activity [11] | Relative activity (%) [12, 14] | Relative activity (%) [12, 15] | Relative activity (%) [13] |
| --- | --- | --- | --- | --- | --- | --- | --- | --- | --- | --- | --- | --- | --- | --- |
| CCCSC/C(C)=C/CC/C(C)=C/COP(=O)(O)OP(=O)(O)O [Compound of formula (M), 8-n-propylthio-3,7-dimethyl-octa-(2E,6E)-dienyl diphosphate] | 127 | 112 | 139 | 149 | 101 | 123 | – | – | – | – | – | – | – | – |
| C/C(=C\COP(=O)(O)OP(=O)(O)O)CC/C=C(\C)COCc1ccccc1 [Compound of formula (N), 8-benzyloxy-3,7-dimethyl-octa-(2E,6E)-dienyl diphosphate] | 112 | – | – | – | – | – | 133 | 147 | 132 | – | – | – | – | – |
| CCCCC(O)/C(C)=C/CC/C(C)=C/COP(=O)(O)OP(=O)(O)O (stereo not drawn) [Compound of formula (C), 8-hydroxy-3,7-dimethyl-dodeca-(2E,6E)-dienyl diphosphate] | 234 | 130 | 108 | 111 | – | 155 | – | – | – | 74.8% | 146 | 37.3% | – | – |
| C/C(=C\COP(=O)(O)OP(=O)(O)O)CC/C=C(\C)CO[Si](C)(C)C(C)(C)C [Compound of formula (P), 8-[(tert-butyldimethylsilyl)oxy]-3,7-dimethyl-octa-(2E,6E)-dienyl diphosphate] | – | – | – | – | – | 112 | – | 130 | 104 | – | 104 | – | – | – |
| CC[C@H](O)CC/C(C)=C/CC/C(C)=C/COP(=O)(O)OP(=O)(O)O [Compound of formula (D), (10S)-hydroxy-3,7-dimethyl-dodeca-(2E,6E)-dienyl diphosphate] | 208 | 101 | 103 | 179 | 104 | 125 | 124 | 120 | – | – | 134 | – | – | – |
| CC(C)=CCC/C(C)=C/CC/C(C)=C/CC/C=C/COP(=O)(O)OP(=O)(O)O [Initiating substrate 4, 7,11,15-trimethyl-hexadeca-2E,6E,10E,14E-tetraenyl diphosphate] | – | – | – | – | – | – | – | – | – | 5.9% | – | 1.4% | 0.8% | 0.7% |
| CCC(O)CC/C(C)=C/CC/C(C)=C/COP(=O)(O)OP(=O)(O)O [Compound of formula (R), 10-hydroxy-3,7-dimethyl-dodeca-(2E,6E)-dienyl diphosphate] | 254 | 165 | 137 | 200 | 146 | 230 | 156 | 121 | 140 | – | 110 | – | – | – |
| CC[C@@H](O)CC/C(C)=C/CC/C(C)=C/COP(=O)(O)OP(=O)(O)O [Compound of formula (E), (10R)-hydroxy-3,7-dimethyl-dodeca-(2E,6E)-dienyl diphosphate] | 396 | 163 | 271 | 222 | 210 | 320 | 194 | 114 | 120 | – | 170 | – | – | – |
| CC(C)=CCC/C(C)=C/CC/C=C/COP(=O)(O)OP(=O)(O)O [Initiating substrate 3, 7,11-dimethyl-dodeca-2E,6E,10E-trienyl diphosphate] | – | – | – | – | – | – | – | – | – | 1.2% | – | 3.9% | 0.6% | 2.1% |
| CC(C)=CCC/C=C/COP(=O)(O)OP(=O)(O)O [Initiating substrate 2, 7-methyl-octa-2E,6E-dienyl diphosphate] | – | – | – | – | – | – | – | – | – | 0.6% | – | 2.5% | 0.4% | 3.2% |
| CCCCC(OC)/C(C)=C/CC/C(C)=C/COP(=O)(O)OP(=O)(O)O (stereo not drawn) [Compound of formula (B), 8-methoxy-3,7-dimethyl-dodeca-(2E,6E)-dienyl diphosphate] | 319 | 156 | – | 116 | – | 231 | – | 140 | 128 | 68.4% | 149 | 70.6% | – | – |
| 7-acetyl-7-aza-3-methyl-dodeca-(2E)-dienyl diphosphate [Compound of formula (K)] | – | 112 | – | – | – | – | – | 148 | 136 | 40.6% | – | 38.6% | – | – |
| C/C=C/COP(=O)(O)OP(=O)(O)O [Initiating substrate 1, 2E-butenyl diphosphate] | – | – | – | – | – | – | – | – | – | 0.3% | – | 2.3% | 0.4% | 1.4% |
| CCC(CC/C(C)=C/CC/C(C)=C/COP(=O)(O)OP(=O)(O)O)C(C)=O [Compound of formula (S), 10-acetyl-3,7-dimethyl-dodeca-(2E,6E)-dienyl diphosphate] | – | 147 | – | 116 | – | 227 | – | 130 | 163 | – | 130 | – | – | – |
| COCOC/C(C)=C/CC/C(C)=C/COP(=O)(O)OP(=O)(O)O [Compound of formula (H), 8-methoxymethoxy-3,7-dimethyl-octa-(2E,6E)-dienyl diphosphate] | 162 | – | – | 152 | 110 | – | – | – | – | – | – | – | – | – |
